Source: patent US6399570B1, “Antimicrobial/endotoxin neutralizing polypeptide” (priority 1999, dated 2002)

What was measured:
E. coli 0111 = experiment: Antimicrobial assay for LF polypeptides (CFU after 6 h); assay type: cell-based
Procedure: The antimicrobial activity of the catheptic polypeptide was measured against a clinical isolate, E. coli 0111. […] The 6 kDa catheptic fragment of LF is therefore at least as potent as twelve other natural antimicrobial polypeptides (H. G. Boman, J. Marsh, and J. A. Goode, Eds., Antimicrobial Peptides, (John Wiley & Sons Ltd., New York, N.Y., 1994)), and can function as a bactericidal agent. […] At 100 μM polypeptide, the number of viable bacteria was more than 1,000-fold greater in the cultures treated with the pepsinolytic versus cathepsinolytic fragment (FIG. 1). The basis for this difference in potency may be related to the additional, internal, pepsin cleavages which occur between the two disulfide bridges in the 6 kDa domain (Mann et al., J. Biol. Chem. 269: 23661-7 (1994); Bellamy et al., Biochim. Biophys. Acta 1121: 130-6 (1992)).
Antimicrobial assay for LF polypeptides. Cultures of E. coli 0111 (American Type Culture Collection #43887) were grown at 37° C. in 1% bactopeptone (BP) (Difco) in Dulbecco's phosphate buffered saline (dPBS) (Mediatech) with aeration by shaking (225 rpm). overnight cultures were diluted 8,000-fold in 2×concentrated BP/dPBS and mixed with an equal volume of sterile endotoxin-free distilled water containing serial dilutions of the polypeptide to be tested. The final assay volume was […] in a 12 mm×75 mm polypropylene tube (Falcon) with an ultimate dilution of the overnight cultures of 1:16,000 to yield an original inoculum of ˜1-2×10^4 CFU/ml. The final assay medium was physiological in ionic strength, 1% bactopeptone in 1×Dulbecco's phosphate buffered saline. Cultures were grown for 6 h at 37° C. with aeration as above and then cell density determined by measuring CFU/ml for each assay culture tube. Serial dilutions of each assay tube were plated on Luria Broth bactoagar and incubated for 24 h at 37° C. prior to counting colonies. All assays were done in triplicate and the standard deviation calculated for each concentration of inhibitor. Culture density at the beginning and end of the 6 h growth period was also determined from triplicate cultures lacking any polypeptide inhibitors. Untreated cultures typically grew to 1-2×10^8 CFU/ml in 6 h under these assay conditions.

RAW 264.7 cells = experiment: Endotoxin induced TNF-α secretion by RAW 264.7 cells; assay type: cell-based, murine
Procedure: Suppression of endotoxin-induced TNF-α secretion by a macrophage cell line RAW 264.7 was also measured (Kelly et al., Infect. Immun. 59: 4491-6 (1991)). RAW 264.7 cells secret TNF-α upon exposure to endotoxin (M. R. Ruff and G. E. Gifford, Lymphokines 2: 235-272 (1981)). […] Similar to the results of the LAL assay, the potency of LF-33 varied depending on the type of endotoxin. The LF-33 concentration needed to suppress 50% TNF-α secretion induced by endotoxin (10 ng/ml) was approximately 0.01 μM for E. coli LPS and lipid A, 0.1 μM for LPS from P. aeruginosa, and 0.5 μM for LPS from S. abortus equi and N. meningitidis.
Endotoxin induced TNF-α secretion by RAW 264.7 cells. The murine macrophage cell line RAW 264.7 was obtained from the American Type Culture Collection (ATCC, Rockville, Md.) and maintained as described previously (Jeremy, B., Immunol. Today. 16: 417-419 (1995)). The concentration of endotoxin in all buffers and media was controlled to below 0.1 EU/ml. The following protocol was essentially described before and used here with minor modifications (Kelly et al., Infect. Immun. 59: 4491-6 (1991)). Each well of a 96-well tissue culture plate was seeded with 150 μl RAW 264.7 cells at 10^6 cells per ml DMEM (Life Technologies, Gaithersburg, Md.) supplemented with 10% heat-treated fetal bovine serum (Life Technologies), 25 mM HEPES (N-2-hydroxyethylpiperazine-N′-2-ethanesulfonic acid; pH 7.3), penicillin (60 U/ml) and streptomycin (60 μg/ml). After overnight incubation at 37° C. in a 6% CO2 incubator, the medium was aspirated and cells washed with 3-changes of endotoxin-free Hank's balanced salt solution (HBSS, Life Technologies) supplemented with 25 mM HEPES (pH 7.3). Control endotoxin (10 ng/ml) and test materials were prepared in HBSS-HEPES. After incubation in a 37° C. water bath for 1 h, 0.2 ml of these solutions was added in triplicate to each well and incubated at 37° C. for 6 h. The supernatants were then collected and stored at −70° C. before the measurement of […] activity. Controls included HBSS-HEPES and test materials in the absence of endotoxin. TNF-α activity of the medium and test materials was below […]. The human serum used in some experiments was a pool from normal donors.
Determination of TNF activity. TNF-α activity in the culture supernatant was determined based on its cytotoxicity for the mouse fibrosarcoma cell line WEHI 164 cells (ATCC). […] The antibody at 1:100 dilution completely eliminated the cytotoxicity in the culture supernatant of the RAW 264.7 cell stimulated by endotoxin and in the mouse sera collected 1 h after intraperitoneal injection of endotoxin.
Briefly, the 96-well tissue culture plates were seeded with 100 μl WEHI164 cells (5×10^4 cells) in RPMI-1640 medium (Life Technologies) containing 10% heat-treated fetal bovine serum, 25 mM HEPES (pH 7.3), penicillin (60 U/ml), streptomycin (60 μg/ml), and actinomycin D (4 μg/ml). After a 2-h incubation at 37° C. in a 6% CO2 incubator, 10 μl twofold serially diluted samples (culture supernatants) or standards (murine recombinant TNF-α, Genzyme) was added to each well, and incubated for 20 h. Cell viability was then determined by the addition of 10 μl MTT (Thiazolyl blue, Sigma) stock solution (5 mg/ml in saline) to each well, and the incubation was allowed to continue for 6 h. 180 μl of acid-isopropanol (containing 40 mM HCl) was added to dissolve the generated dark blue crystals. The plate was read at 570 nm with a reference of 630 nm in a microplate reader. The amount of TNF-α that led to 50% killing of the seeded cells was defined as one unit, equivalent to approximately 15 pg of recombinant TNF-α under the present condition. A standard curve was obtained by incubating known amounts of the recombinant TNF-α with the WEHI cells.

## 6 kDa polypeptide: 6 kDa fragment produced by cathepsin D digestion of human LF, amino acids 1-49 of SEQ ID NO: 2 (GRRRRSVQWCAVSQPEATKCFQWQRNMRKVRGPPVSCIKRDSPIQCIQA; listed as Homo sapiens)
E. coli 0111; 100 μM polypeptide
  reduction in cell growth: greater than 10,000 fold
E. coli 0111; 100 μM polypeptide, original inoculum 2.14×10^4 CFU/ml
  number of viable CFUs: 8.8×10^3 CFU/ml
E. coli 0111; E. coli 0111, physiological ionic strength, 6 h, CFU
  minimum inhibitory concentration (MIC): 1 to 5 µM
E. coli 0111; from MICs
  potency against bacteria relative to the fragment liberated by pepsin: ~10 fold

## CSCC[C@H](NC(=O)[C@H](CC(N)=O)NC(=O)[C@H](CCCNC(=N)N)NC(=O)[C@H](CCC(N)=O)NC(=O)[C@H](Cc1c[nH]c2ccccc12)NC(=O)[C@H](CCC(N)=O)NC(=O)[C@H](Cc1ccccc1)NC(=O)[C@H](CS)NC(=O)[C@H](CCCCN)NC(=O)[C@@H](NC(=O)[C@H](C)NC(=O)[C@H](CCC(=O)O)NC(=O)[C@@H]1CCCN1C(=O)[C@H](CCC(N)=O)NC(=O)[C@H](CO)NC(=O)[C@@H](NC(=O)[C@H](C)NC(=O)[C@H](CS)NC(=O)[C@H](Cc1c[nH]c2ccccc12)NC(=O)[C@H](CCC(N)=O)NC(=O)[C@@H](N)C(C)C)C(C)C)[C@@H](C)O)C(=O)N[C@@H](CCCNC(=N)N)C(=O)N[C@@H](CCCCN)C(=O)N[C@H](C(=O)N[C@@H](CCCNC(=N)N)C(=O)NCC(=O)N1CCC[C@H]1C(=O)O)C(C)C [LF-27]
RAW 264.7 cells; agent 3 μM, endotoxin 10 ng/ml, control 2,386
  TNF-α secretion induced by Lipid A: 3,182 +/− 412 pg/ml
RAW 264.7 cells; agent 3 μM, endotoxin 10 ng/ml, control 3,969
  TNF-α secretion induced by S. abortus LPS: 3,985 +/− 497 pg/ml
RAW 264.7 cells; agent 3 μM, endotoxin 10 ng/ml, control 4,813
  TNF-α secretion induced by P. aer. LPS: 4,633 +/− 603 pg/ml
RAW 264.7 cells; agent 3 μM, endotoxin 10 ng/ml, control 4,928
  TNF-α secretion induced by E. coli LPS: 4,912 +/− 588 pg/ml
RAW 264.7 cells; agent 3 μM, endotoxin 10 ng/ml, control 5,658
  TNF-α secretion induced by N. min. LPS: 7,306 +/− 1008 pg/ml
RAW 264.7 cells; equal molar concentration of LF-27 or 10% human serum
  effect on endotoxin-induced TNF-α secretion: no effect
